Our source for the MIC values is DBAASP.

The structures appear in SMILES notation. Converted amounts (≈) assume the structure as drawn. “And” between values parts separate entries of the source, which are not always exact repeats. Equal entries are not always repeated.

Among the test systems are Escherichia coli W160-37; Escherichia coli ML-35p; Listeria innocua; Escherichia coli; Leuconostoc lactis; Micrococcus luteus; Pasteurella multocida; Staphylococcus aureus; Streptococcus uberis; Bacillus cereus; Escherichia coli MG1655; Acinetobacter baumannii; Klebsiella pneumoniae; Pseudomonas aeruginosa.
Holding throughout (assay): ≥ marks a high value that may be exact or a test limit, other limits are often not marked, values filed in µg/mL are converted to µM
Test [1] concerns Staphylococcus aureus ATCC 700699.
Test [2] concerns Staphylococcus epidermidis.
Test [3] concerns Batrachochytrium dendrobatidis.
The subject of test [4] is Pseudomonas aeruginosa ATCC 27853.
Test [5] deals with Enterococcus faecium ATCC 700221.
Test [6] has as its system Staphylococcus aureus ATCC 33591.
The subject of test [7] is Staphylococcus aureus ATCC 25923.
The subject of test [8] is Candida albicans ATCC 200955.
For test [9], the system named is Escherichia coli ATCC 25922.
Test [10] has as its system Staphylococcus aureus ATCC 33592.
Test [11] relates to Staphylococcus aureus ATCC 29213.
Test [12] relates to Klebsiella pneumoniae ATCC 700603.
Test [13] has as its system Klebsiella pneumoniae ATCC BAA-2146.
Test [14] relates to Cryptococcus neoformans ATCC 208821.
For test [15], the system named is Acinetobacter baumannii ATCC 19606.
The test system of test [16] is Staphylococcus aureus ATCC 43300.
Test [17] deals with Candida albicans ATCC 90028.
The subject of test [18] is Bacillus subtilis ATCC 6051.
Test [19] relates to Klebsiella pneumoniae ATCC 13883.

Broadly, the MIC is the smallest concentration in the dilution series that meets the test's criterion for growth inhibition. As to `CC[C@H](C)[C@H](NC(=O)[C@H](CCCCN)NC(=O)[C@H](CCCN=C(N)N)NC(=O)[C@@H]1CCCN1C(=O)[C@@H](NC(=O)[C@H](CC(C)C)NC(=O)[C@H](CCCCN)NC(=O)[C@H](CC(C)C)NC(=O)[C@@H](N)Cc1ccccc1)[C@@H](C)CC)C(=O)N[C@H](C(=O)N[C@H](C(=O)N[C@@H](C)C(=O)N[C@@H](CC(C)C)C(N)=O)[C@@H](C)O)C(C)C` [FLKLIPRKIVTAL], the MIC in the test on Escherichia coli W160-37 is at least 265 µM.

Turning to `CC(=O)NCC(=O)N[C@@H](Cc1ccccc1)C(=O)N[C@@H](CCCN=C(N)N)C(=O)N[C@@H](CCCCN)C(=O)N[C@@H](Cc1ccccc1)C(=O)N[C@@H](Cc1cnc[nH]1)C(=O)N[C@@H](CCCCN)C(=O)N[C@@H](Cc1ccccc1)C(=O)N[C@@H](Cc1c[nH]c2ccccc12)C(=O)N[C@@H](C)C(N)=O` [GFRKFHKFWA], the minimal inhibitory concentration (MIC) (in [1]; against Escherichia coli ML-35p) was at least 500 µM each time.

Consider `CC[C@H](C)[C@H](NC(=O)[C@H](CO)NC(=O)CNC(=O)[C@H](CC(C)C)NC(=O)[C@@H](NC(=O)CNC(=O)[C@H](Cc1ccccc1)NC(=O)[C@H](CC(C)C)NC(=O)CN)C(C)C)C(=O)N[C@@H](C)C(=O)N[C@@H](CCCCN)C(=O)N[C@@H](Cc1cnc[nH]1)C(=O)N[C@H](C(=O)N[C@@H](CC(C)C)C(=O)N1CCC[C@H]1C(=O)N[C@@H](Cc1cnc[nH]1)C(=O)N[C@H](C(=O)N[C@H](C(=O)N1CCC[C@H]1C(=O)N[C@H](C(=O)N[C@H](C(=O)N[C@@H](C)C(=O)N[C@@H](CCC(=O)O)C(=O)N[C@@H](CCCCN)C(=O)N[C@@H](CC(C)C)C(N)=O)[C@@H](C)CC)C(C)C)C(C)C)C(C)C)C(C)C` [GLFGVLGSIAKHVLPHVVPVIAEKL], for which the MIC in the test on Listeria innocua is 19.3 µM (≈ 50 µg/mL); against Escherichia coli, over 38.5 µM; against Leuconostoc lactis, 4.63 µM (≈ 12 µg/mL); in the test on Micrococcus luteus, 19.3 µM (≈ 50 µg/mL); in the test with Pasteurella multocida, 19.3 µM (≈ 50 µg/mL); in [2] it was 9.64 µM (≈ 25 µg/mL). Further, the MIC was 4.63 µM (≈ 12 µg/mL) in the test on Staphylococcus aureus, at least 35.4 µM in test [3], 19.3 µM (≈ 50 µg/mL) against Streptococcus uberis and at least 38.5 µM with Bacillus cereus.

On to `CC[C@H](C)[C@H](NC(=O)[C@H](CCCCN)NC(=O)[C@H](CCCCN)NC(=O)[C@H](CC(C)C)NC(=O)[C@H](CC(C)C)NC(=O)CN)C(=O)N[C@@H](CCCCN)C(=O)N[C@H](C(=O)N[C@@H](CC(C)C)C(=O)N[C@@H](CC(C)C)C(N)=O)[C@@H](C)O` [GLLKKIKTLL], for which the MIC was 56.8 µM (≈ 63.9 µg/mL) in [4]; at least 171 µM in test [5]; at least 512 µM in test [6]; 19.5 µM (≈ 22 µg/mL) in [7]; at least 56.8 µM in test [8].

For `CC[C@H](C)[C@H](NC(=O)[C@H](Cc1c[nH]c2ccccc12)NC(=O)[C@H](CCCCN)NC(=O)[C@H](CC(C)C)NC(=O)[C@H](CC(C)C)NC(=O)CN)C(=O)N[C@@H](CCCCN)C(=O)N[C@@H](CCCCN)C(=O)N[C@@H](CC(C)C)C(=O)N[C@@H](CC(C)C)C(N)=O` [GLLKWIKKLL], the MIC in test [4] amounted to 9.5 µM (≈ 11.5 µg/mL); in test [5] it was 3.2 µM (≈ 3.87 µg/mL); in test [6], 2.5 µM (≈ 3.03 µg/mL); in test [8], 3.2 µM (≈ 3.87 µg/mL); in [9] it was 3.2 µM (≈ 3.87 µg/mL).

For `CC[C@H](C)[C@H](NC(=O)[C@H](Cc1c[nH]c2ccccc12)NC(=O)[C@H](CO)NC(=O)CNC(C)=O)C(=O)N[C@@H](CCCCN)C(=O)N[C@@H](CCCN=C(N)N)C(=O)N[C@@H](CC(C)C)C(=O)N[C@@H](CC(N)=O)C(=O)N[C@@H](CO)C(=O)N[C@@H](Cc1c[nH]c2ccccc12)C(=O)N[C@@H](CC(C)C)C(=O)N[C@@H](CCCN=C(N)N)C(=O)N[C@@H](CCCCN)C(N)=O` [GSWIKRLNSWLRK], the MIC in test [10] was at least 38.9 µM; against Escherichia coli MG1655, 4 µM and 8 µM.

`CC[C@H](C)[C@H](NC(=O)[C@H](CC(=O)O)NC(=O)[C@H](CCCCN)NC(=O)[C@H](C)NC(=O)[C@H](CC(C)C)NC(=O)CNC(=O)[C@H](CCCCN)NC(=O)[C@H](CC(C)C)NC(=O)[C@@H](NC(=O)[C@H](CC(=O)O)NC(=O)[C@@H](NC(=O)[C@@H](NC(=O)CN)C(C)C)C(C)C)[C@@H](C)CC)C(=O)N[C@@H](C)C(=O)NCC(=O)N[C@@H](Cc1cnc[nH]1)C(=O)N[C@@H](CC(C)C)C(=O)N[C@@H](C)C(=O)N[C@@H](CO)C(=O)N[C@@H](CCCCN)C(=O)N[C@H](C(=O)N[C@@H](CCSC)C(=O)N[C@@H](CC(N)=O)C(=O)N[C@@H](CCCCN)C(=O)N[C@@H](CC(C)C)C(N)=O)C(C)C` [GVVDILKGLAKDIAGHLASKVMNKL]: the MIC in [11] is 50 µM (≈ 130 µg/mL); in test [4], 100 µM (≈ 259 µg/mL); in test [1], at least 50 µM; in test [12], 50 µM (≈ 130 µg/mL); in test [6], 25 µM (≈ 64.8 µg/mL); in [9], 12.5 µM (≈ 32.4 µg/mL).

Take `CC[C@H](C)[C@@H]1NC(=O)CNC(=O)[C@H](CCCN=C(N)N)NC(=O)[C@H](Cc2ccc(O)cc2)NC(=O)[C@@H]2CSSC[C@H](NC1=O)C(=O)N[C@@H](Cc1ccc(O)cc1)C(=O)N[C@@H](CCCN=C(N)N)C(=O)N[C@@H](C)C(=O)N[C@H](C(=O)N[C@@H](CCCN=C(N)N)C(=O)O)CSSC[C@H](NC(=O)[C@H](Cc1c[nH]c3ccccc13)NC(=O)[C@@H](N)CCCCN)C(=O)N[C@@H](Cc1ccccc1)C(=O)N[C@@H](CCCN=C(N)N)C(=O)N[C@@H](C(C)C)C(=O)N2` [KWCFRVCYRGICYRACR]: the minimal inhibitory concentration (MIC) stood at 0.458 µM (≈ 0.998 µg/mL) in [13]; 0.115 µM (≈ 0.25 µg/mL) in test [14]; 1.83 µM (≈ 3.99 µg/mL) in [4]; 0.115 µM (≈ 0.25 µg/mL) in [15]; 1.83 µM (≈ 3.99 µg/mL) in test [16]; 0.916 µM (≈ 2 µg/mL) in [12]. Also, the MIC was determined as 0.115 µM (≈ 0.25 µg/mL) in the test on Acinetobacter baumannii; 7.33 µM (≈ 16 µg/mL) in the test with Klebsiella pneumoniae; 0.916 µM (≈ 2 µg/mL) in [17]; 1.83 µM (≈ 3.99 µg/mL) against Pseudomonas aeruginosa; 0.115 µM (≈ 0.25 µg/mL) in test [9]; 0.0137 µM (≈ 0.0299 µg/mL) in [18]. This molecule showed an MIC in test [19] of 0.115 µM (≈ 0.25 µg/mL).

As to `CC[C@H](C)[C@H](NC(=O)[C@H](Cc1c[nH]c2ccccc12)NC(=O)[C@H](CCCCN)NC(=O)[C@H](CO)NC(=O)[C@H](CC(C)C)NC(=O)[C@H](Cc1ccccc1)NC(=O)[C@@H](NC(=O)[C@H](CCCCN)NC(=O)[C@H](CC(C)C)NC(=O)[C@H](CC(C)C)NC(=O)[C@H](CCCCN)NC(=O)[C@@H]1CCCN1)[C@@H](C)O)C(=O)NCC(=O)O` [PKLLKTFLSKWIG], the figures for the MIC with Escherichia coli W160-37, with Staphylococcus aureus and in the test on Pseudomonas aeruginosa were 4.57 µM (≈ 7 µg/mL), 3.27 µM (≈ 5 µg/mL) and 19.6 µM (≈ 30 µg/mL), respectively.
